In paper PMC7491124, “Studies on sugar transporter CRT1 reveal new characteristics that are critical for cellulase induction in Trichoderma reesei” (Biotechnology for Biofuels, 2020):

Tests used:
Assay type in all cases: cell-based
CRT1-RUT-C30 [1] = molecular target: T1, CRT1-RUT-C30 (Trichoderma reesei, UniProt G0RGH7); test: radiolabelled sugar uptake in yeast; conditions: labelled compound; zero-trans uptake, 100 mM potassium phosphate pH 6.5, 28 °C
T1 construct: gene TRIREDRAFT_3405; full-length RUT-C30 version with longer N-terminus; codon-optimized synthetic gene, PGK1 promoter, centromeric plasmid in S. cerevisiae co-expressing N. crassa GH1-1

CRT1-RUT-C30 [2] = molecular target: T1, CRT1-RUT-C30; test: inhibition of labelled cellobiose uptake in yeast; conditions: 5 mM labelled cellobiose, 25 mM inhibitor; pH 6.5, 28 °C
CDT-1 = molecular target: T2, CDT-1 (Neurospora crassa, UniProt Q7SCU1); test: inhibition of labelled cellobiose uptake in yeast; conditions: 5 mM labelled cellobiose, 25 mM inhibitor; pH 6.5, 28 °C
T2 construct: full-length; PGK1 promoter, centromeric plasmid in S. cerevisiae co-expressing N. crassa GH1-1
T2 sequence (Q7SCU1 1-579): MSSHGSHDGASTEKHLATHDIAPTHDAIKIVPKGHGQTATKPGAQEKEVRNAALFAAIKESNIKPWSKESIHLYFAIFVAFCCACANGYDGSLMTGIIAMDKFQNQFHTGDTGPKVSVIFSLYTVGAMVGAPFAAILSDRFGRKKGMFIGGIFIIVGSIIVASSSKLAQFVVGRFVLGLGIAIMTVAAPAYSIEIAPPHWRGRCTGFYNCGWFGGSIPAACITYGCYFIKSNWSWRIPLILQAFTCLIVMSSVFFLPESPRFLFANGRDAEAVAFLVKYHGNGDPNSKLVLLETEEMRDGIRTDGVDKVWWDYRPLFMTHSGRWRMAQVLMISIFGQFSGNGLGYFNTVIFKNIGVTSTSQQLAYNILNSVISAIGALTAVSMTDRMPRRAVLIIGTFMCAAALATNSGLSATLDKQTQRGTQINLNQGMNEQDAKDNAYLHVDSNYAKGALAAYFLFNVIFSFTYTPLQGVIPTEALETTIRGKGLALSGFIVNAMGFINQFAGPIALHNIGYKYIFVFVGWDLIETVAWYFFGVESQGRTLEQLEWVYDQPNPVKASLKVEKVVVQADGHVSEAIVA

CDT-2 = molecular target: T3, CDT-2 (Neurospora crassa, UniProt Q7SD12); test: radiolabelled lactose uptake in yeast, […] min; conditions: labelled compound; 5 mM lactose, pH 6.5, 28 °C
T3 construct: full-length; PGK1 promoter, centromeric plasmid in S. cerevisiae co-expressing N. crassa GH1-1
T3 sequence (Q7SD12 1-525): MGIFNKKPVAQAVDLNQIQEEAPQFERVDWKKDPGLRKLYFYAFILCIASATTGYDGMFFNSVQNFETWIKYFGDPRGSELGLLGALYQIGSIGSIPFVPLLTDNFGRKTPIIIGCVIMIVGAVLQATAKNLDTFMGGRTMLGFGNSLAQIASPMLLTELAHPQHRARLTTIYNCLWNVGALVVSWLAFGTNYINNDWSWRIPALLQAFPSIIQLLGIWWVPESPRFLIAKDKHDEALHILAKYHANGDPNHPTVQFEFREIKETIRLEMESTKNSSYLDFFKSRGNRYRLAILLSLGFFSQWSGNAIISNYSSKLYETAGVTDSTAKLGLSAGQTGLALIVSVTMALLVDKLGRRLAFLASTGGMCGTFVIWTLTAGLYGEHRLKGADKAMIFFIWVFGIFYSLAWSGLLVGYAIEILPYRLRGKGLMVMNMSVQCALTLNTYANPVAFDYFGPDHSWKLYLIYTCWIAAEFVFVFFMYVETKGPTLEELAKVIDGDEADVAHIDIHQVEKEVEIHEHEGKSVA

T1 sequence (G0RGH7 entry or part of it): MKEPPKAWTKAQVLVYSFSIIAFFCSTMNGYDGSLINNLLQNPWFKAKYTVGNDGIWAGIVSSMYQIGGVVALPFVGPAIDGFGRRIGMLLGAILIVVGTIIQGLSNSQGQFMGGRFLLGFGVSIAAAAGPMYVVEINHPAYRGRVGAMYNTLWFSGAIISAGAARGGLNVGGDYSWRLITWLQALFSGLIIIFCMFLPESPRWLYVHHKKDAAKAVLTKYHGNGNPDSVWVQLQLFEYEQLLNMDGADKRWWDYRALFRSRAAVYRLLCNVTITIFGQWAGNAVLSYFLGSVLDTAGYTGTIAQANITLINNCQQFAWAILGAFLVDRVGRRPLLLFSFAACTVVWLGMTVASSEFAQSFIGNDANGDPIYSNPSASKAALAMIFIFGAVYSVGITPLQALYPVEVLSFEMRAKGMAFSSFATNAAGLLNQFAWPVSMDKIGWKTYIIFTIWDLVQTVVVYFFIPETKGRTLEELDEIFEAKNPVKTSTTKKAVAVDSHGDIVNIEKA

Compound `OC[C@H]1O[C@@H](O[C@H]2[C@H](O)[C@@H](O)C(O)O[C@@H]2CO)[C@H](O)[C@@H](O)[C@@H]1O` (some centres unmarked) [cellobiose] has a Km (CRT1-RUT-C30 [1]) of 3.1 ± 0.7 µM.
`OC[C@H]1O[C@@H](O[C@H]2[C@H](O)[C@@H](O)[C@H](O[C@H]3[C@H](O)[C@@H](O)C(O)O[C@@H]3CO)O[C@@H]2CO)[C@H](O)[C@@H](O)[C@@H]1O` (some centres unmarked) [cellotriose] was tested, and the “% inhibition at 25 mM” value (CRT1-RUT-C30 [2]) was “it was inhibited by cellobiose and to some extent by lactose and cellotriose” and the “% inhibition at 25 mM” value (CDT-1) was “it was inhibited by cellobiose and to some extent by lactose and cellotriose”.
In the case of `OC[C@H]1O[C@@H](O[C@H]2[C@H](O)[C@@H](O)C(O)O[C@@H]2CO)[C@H](O)[C@@H](O)[C@H]1O` (some centres unmarked) [lactose], the “radiolabelled lactose uptake in yeast, 20 min” value (CDT-2) is reported as “higher lactose uptake was seen for the strains which expressed CDT-1, CDT-2 or CRT1-RUT-C30” and the Km (CRT1-RUT-C30 [1]) is reported as 62.9 ± 27.4 µM.
